This passage reports Activity results from patent publication US10071081B2, “Compositions of 1,2,4-oxadiazole benzoic acid compounds and methods for their use” (PTC Therapeutics, Inc., priority 2003, dated 2018).

This assay relates to luciferase reporter construct containing a UGA premature termination codon. Briefly: cell-based luciferase reporter assay. Also noted: species or system Human; key to Activity: *****: both extremely high potency and extremely high efficacy of protein synthesis; ****: extremely high potency of protein synthesis and very high efficacy; ****: very high potency of protein synthesis and extremely high efficacy; ***: both very high potency and very high efficacy of protein synthesis; **: very high potency of protein synthesis and significant efficacy; **: significant potency of protein synthesis and very high efficacy; *: significant potency and efficacy of protein synthesis. The settings on record: ranking combining potency and efficacy of protein synthesis; UGA luciferase reporter stably transfected in 293T Human Embryonic Kidney cells. The protocol:
Activity measurements in Table I were performed in a cell-based luciferase reporter assay (as described in Section 4.2) comprising a luciferase reporter construct containing a UGA premature termination codon that was stably transfected in 293T Human Embryonic Kidney cells. A small molecule, 3-[3-(4-Isopropyl-phenyl)-2,5-dioxo-imidazolidin-1-yl]-benzoic acid, known to allow readthrough of premature termination codons was used was used as an internal standard. Activity measurements are based on the qualitative relation between the minimum concentration of compound required to produce a given protein in a cell (potency) and the maximum amount of protein produced by the cell (efficacy). Potency and efficacy activities are ranked as either extremely high, very high or significant. The combination of these activities is used to determine the activity ranking.
Two assays were developed for use in high throughput screens to identify small molecules that promote nonsense suppression. Each assay utilized luciferase because it is a functional reporter gene assay (light is only produced if the protein is functional) and it is extremely sensitive (Light intensity is proportional to luciferase concentration in the nM range). The first assay is a cell-based luciferase reporter assay and the second is a biochemical assay consisting of rabbit reticulocyte lysate and a nonsense-containing luciferase reporter mRNA. In the cell-based assay, a luciferase reporter construct containing a UGA premature termination codon was stably transfected in 293T Human Embryonic Kidney cells. In the biochemical assay, mRNA containing a UGA premature termination codon was used as a reporter in an in vitro translation reaction using rabbit reticulocyte lysate supplemented with tRNA, hemin, creatine kinase, amino acids, KOAc, Mg(OAc)2, and creatine phosphate. […] Synthetic mRNA was prepared in vitro using the T7 promoter and the MegaScript in vitro transcription kit (Ambion).
To determine whether compounds also function in vivo, a stable cell line harboring the UGA nonsense-containing luciferase gene was treated with selected compounds. Cells were grown in standard medium supplemented with 1% penicillin-streptomycin (P/S) and 10% fetal bovine serum (FBS) to 70% confluency and split 1:1 the day before treatment. On the following day, cells were trypsinized and 40,000 cells were added to each well of a 96-well tissue culture dish. Serial dilutions of each compound were prepared to generate a six-point dose response curve spanning 2 logs (30 μM to 0.3 μM). The final concentration of the DMSO solvent remained constant at 1% in each well. Cells treated with 1% DMSO served as the background standard, and cells treated with gentamicin served as a positive control.
Background: Reporter assays use an easily measured gene product as a stand-in for the process of interest.

Structures are written as SMILES. Counter-ions that a name gives are not always drawn.

On to `O=C(O)c1cccc(-c2noc(-c3cc(C(F)(F)F)cc(C(F)(F)F)c3)n2)c1` [Compound 16, 3-[5-(3,5-Bis-trifluoromethyl-phenyl)-[1,2,4]oxadiazol-3-yl]-benzoic acid], for which the Activity entry was “****”.
As to `COCCOCCOCCOCCOC(=O)c1cccc(-c2noc(-c3ccccc3F)n2)c1` [Compound 90, 3-[5-(2-Fluoro-phenyl)-[1,2,4]oxadiazol-3-yl]-benzoic acid 2-{2-[2-(2-methoxy-ethoxy)-ethoxy]-ethoxy}-ethyl ester], the Activity result is reported as “**”.
For `CC(C)Cc1ccc(-c2nc(-c3cccc(C(=O)O)c3)no2)cc1` [Compound 07, 3-[5-(4-Isobutyl-phenyl)-[1,2,4]oxadiazol-3-yl]-benzoic acid] the value was “**”.
For `COc1ccc(Cc2nc(-c3cccc(C(=O)O)c3)no2)cc1` [Compound 61, 3-[5-(4-Methoxy-benzyl)-[1,2,4]oxadiazol-3-yl]-benzoic acid] the value was “**”.
Next, `O=C(O)c1cccc(-c2noc(-c3ccc4nonc4c3)n2)c1` [Compound 23, 3-(5-Benzo[1,2,5]oxadiazol-5-yl-[1,2,4]oxadiazol-3-yl)-benzoic acid]: “****”; `O=C(O)c1cccc(-c2noc(-c3ccc(Br)cc3F)n2)c1` [Compound 74, 3-[5-(4-Bromo-2-fluoro-phenyl)-[1,2,4]oxadiazol-3-yl]-benzoic acid]: “***”.
For `O=C(O)c1cccc(-c2noc(-c3ccc(-c4ccccc4)cc3F)n2)c1` [Compound 81, 3-[5-(3-Fluoro-biphenyl-4-yl)-[1,2,4]oxadiazol-3-yl]-benzoic acid], the Activity entry was “**”.
`O=C(O)c1cccc(-c2noc(C3CCC3)n2)c1` [Compound 60, 3-(5-Cyclobutyl-[1,2,4]oxadiazol-3-yl)-benzoic acid]: the Activity result is recorded as “**”.
Regarding `O=C(O)c1cccc(-c2noc(-c3ccc(F)cc3)n2)c1` [Compound 05, 3-[5-(4-Fluoro-phenyl)-[1,2,4]oxadiazol-3-yl]-benzoic acid], the Activity result is reported as “*****”.
As to `O=C(O)c1cccc(-c2noc(-c3ccc(F)c(F)c3)n2)c1` [Compound 39, 3-[5-(3,4-Difluoro-phenyl)-[1,2,4]oxadiazol-3-yl]-benzoic acid], the Activity entry is reported as “*****”.
Turning to `CC(C)(C)c1ccc(-c2nc(-c3cccc(C(=O)O)c3)no2)cc1` [Compound 25, 3-[5-(4-tert-Butyl-phenyl)-[1,2,4]oxadiazol-3-yl]-benzoic acid], the Activity entry was “*****”.
As to `O=C(O)c1cccc(-c2noc(-c3ccc(F)cc3F)n2)c1` [Compound 57, 3-[5-(2,4-Difluoro-phenyl)-[1,2,4]oxadiazol-3-yl]-benzoic acid], the Activity result is recorded as “****”.
For `[N-]=[N+]=Nc1ccc(-c2nc(-c3cccc(C(=O)O)c3)no2)cc1` [Compound 94, 3-[5-(4-Azido-phenyl)-[1,2,4]oxadiazol-3-yl]-benzoic acid] the value was “*****”.
With `O=C(O)c1cccc(-c2noc(-c3ccc4c(c3)OCO4)n2)c1` [Compound 14, 3-(5-Benzo[1,3]dioxol-5-yl-[1,2,4]oxadiazol-3-yl)-benzoic acid], the Activity result is “*****”.
Turning to `COc1ccc(-c2noc(-c3ccc(F)cc3)n2)cc1C(=O)O` [Compound 76, 5-[5-(4-Fluoro-phenyl)-[1,2,4]oxadiazol-3-yl]-2-methoxy-benzoic acid], the Activity entry is “*”.
As for `C/C=C/c1nc(-c2cccc(C(=O)O)c2)no1` [Compound 30, 3-(5-Propenyl-[1,2,4]oxadiazol-3-yl)-benzoic acid], the Activity result is recorded as “****”.
As for `O=C([O][Na+])c1cccc(-c2noc(-c3ccccc3F)n2)c1` [Compound 78, 3-[5-(2-Fluoro-phenyl)-[1,2,4]oxadiazol-3-yl]-benzoic acid sodium salt], the Activity entry is “*****”.
As for `COCCOCCOCCOCCOCCOC(=O)c1cccc(-c2noc(-c3ccccc3F)n2)c1` [Compound 91, 3-[5-(2-Fluoro-phenyl)-[1,2,4]oxadiazol-3-yl]-benzoic acid 2-(2-{2-[2-(2-methoxy-ethoxy)-ethoxy]-ethoxy}-ethoxy)-ethyl ester], the Activity result is listed as “***”.
On to `COC(=O)c1cccc(-c2noc(-c3ccc(F)cc3)n2)c1` [Compound 79, 3-[5-(4-Fluoro-phenyl)-[1,2,4]oxadiazol-3-yl]-benzoic acid methyl ester], for which the Activity result is on record as “***”.
With `O=C(O)c1cccc(-c2noc(C3CCCCC3)n2)c1` [Compound 09, 3-(5-Cyclohexyl-[1,2,4]oxadiazol-3-yl)-benzoic acid], the Activity result is reported as “****”.
For `Cc1cccc(-c2nc(-c3cccc(C(=O)O)c3)no2)c1` [Compound 40, 3-(5-m-Tolyl-[1,2,4]oxadiazol-3-yl)-benzoic acid], the Activity entry is “*****”.
For `COCCOC(=O)c1cccc(-c2noc(-c3ccccc3F)n2)c1` [Compound 87, 3-[5-(2-Fluoro-phenyl)-[1,2,4]oxadiazol-3-yl]-benzoic acid 2-methoxy-ethyl ester], the Activity result is “***”.
Regarding `O=C(O)c1cccc(-c2noc(-c3ccc(-c4ccccc4)cc3)n2)c1` [Compound 06, 3-(5-Biphenyl-4-yl-[1,2,4]oxadiazol-3-yl)-benzoic acid], the Activity entry is on record as “****”.
Next, `CCC(c1ccccc1)c1nc(-c2cccc(C(=O)O)c2)no1` (stereo not shown) [Compound 45, 3-[5-(1-Phenyl-propyl)-[1,2,4]oxadiazol-3-yl]-benzoic acid]: “*”.
For the compound `O=C(O)c1cccc(-c2noc(C3CC3)n2)c1` [Compound 27, 3-(5-Cyclopropyl-[1,2,4]oxadiazol-3-yl)-benzoic acid], the Activity entry is “****”.
As to `O=C(O)c1cccc(-c2noc(-c3ccccc3)n2)c1` [Compound 08, 3-(5-Phenyl-[1,2,4]oxadiazol-3-yl)-benzoic acid], the Activity entry is “*****”.
As for `O=C(O)c1cccc(-c2noc(-c3ccc(-n4cccc4)cc3)n2)c1` [Compound 41, 3-[5-(4-Pyrrol-1-yl-phenyl)-[1,2,4]oxadiazol-3-yl]-benzoic acid], the Activity entry is reported as “****”.
As to `O=C(O)c1cccc(-c2noc(-c3ccno3)n2)c1` [Compound 52, 3-(5-Isoxazol-5-yl-[1,2,4]oxadiazol-3-yl)-benzoic acid], the Activity entry is listed as “**”.
On to `Cc1ccc(-c2nc(-c3cccc(C(=O)O)c3)no2)cc1` [Compound 04, 3-(5-p-Tolyl-[1,2,4]oxadiazol-3-yl)-benzoic acid], for which the Activity entry was “*****”.
`O=C(O)c1cccc(-c2noc(-c3ccc(C(F)(F)F)cc3)n2)c1` [Compound 17, 3-[5-(4-Trifluoromethyl-phenyl)-[1,2,4]oxadiazol-3-yl]-benzoic acid]: the Activity entry is “*****”.
Consider `O=C(O)c1cccc(-c2noc(-c3cccc(F)c3)n2)c1` [Compound 37, 3-[5-(3-Fluoro-phenyl)-[1,2,4]oxadiazol-3-yl]-benzoic acid], for which the Activity entry is “*****”.
On to `CC(C)(C)c1nc(-c2cccc(C(=O)O)c2)no1` [Compound 22, 3-(5-tert-Butyl-[1,2,4]oxadiazol-3-yl)-benzoic acid], for which the Activity result is “*”.
Next, `O=C(O)c1cccc(-c2noc(-c3cc(F)ccc3F)n2)c1` [Compound 44, 3-[5-(2,5-Difluoro-phenyl)-[1,2,4]oxadiazol-3-yl]-benzoic acid]: “****”; `O=C(O)c1cccc(-c2noc(-c3ccc4c(c3)OC(F)(F)O4)n2)c1` [Compound 70, 3-[5-(2,2-Difluoro-benzo[1,3]dioxol-5-yl)-[1,2,4]oxadiazol-3-yl]-benzoic acid]: “***”.
Next, `CC(=O)N1CCC(c2nc(-c3cccc(C(=O)O)c3)no2)CC1` [Compound 64, 3-[5-(1-Acetyl-piperidin-4-yl)-[1,2,4]oxadiazol-3-yl]-benzoic acid]: “*”; `O=C(O)c1cccc(-c2noc(-c3cccc4ccccc34)n2)c1` [Compound 03, 3-(5-Naphthalen-1-yl-[1,2,4]oxadiazol-3-yl)-benzoic acid]: “****”; `CN(C)c1ccc(-c2nc(-c3cccc(C(=O)O)c3)no2)cc1` [Compound 18, 3-[5-(4-Dimethylamino-phenyl)-[1,2,4]oxadiazol-3-yl]-benzoic acid]: “****”.
